# Results from patent publication US11492671B2, “MiRNAs for treatment and in vitro diagnosis of drug resistant tumors” (ISTITUTI FISIOTERAPICI OSPITALIERI, priority 2018, dated 2022).
# Key:
# [1] = test system: human umbilical vein endothelial cells (HUVEC); assay: Endothelial tube formation assay on matrigel; format: cell-based
# Method: Growth factor reduced Matrigel (10 μL/well) was allowed to polymerize for 1 h on angiogenesis 96 well μ-plates (ibidi, GmbH) at 37° C., 5% CO2. HUVEC (5×10^3 cells/well) suspended in 50 μL of pre-warmed Eagle Basal Medium (CTRL), 10% FBS, or conditioned media from WM266^S, or WM266^R cells, were seeded on matrigel and allowed to form tubes at 37° C. in humidified air with 5% CO2 for 6 h. In order to quantify tube formation, images were acquired and the number of tubes formed by cord-like structures exceeding 100 μm in length were visualized using Axiovision 4.8 software (Carl Zeiss) and counted.
# This finding was of particular interest in the light of the known involvement of VEGF in melanoma progression and resistance to therapy (23). […] Of note, for our results only tube-like structures exceeding 100 μm in length were considered. […] As control, 10% FBS employed as a source of angiogenic growth factors, elicited a considerable response rising to 204% over basal (FIG. 24). […] In order to find a correlation between miRNAs deregulation and […]
# A375^DR melanoma cells = assay: Colony formation / growth of cells double resistant to BRAF and MEK inhibitors; format: cell-based, human; conditions: miRNAs targeted individually; FIG. 18 left
# Source text: Data are mean±s.d. from three independent experiments. P<0.05.
# Human melanoma cell lines M14 (ATCC® HTB-129™) and A375 (ATCC® CRL-1619™) (both V600E) were from American Type Culture Collection (ATCC®). LOX IMVI (V600E) melanoma cell line (EZT-LOXI-1) was from EZ Byosistems™. WM266 melanoma cell line (V600D)(WM266-4-01-0001) was from ROCKLAND™ antibodies & assays. Resistant melanoma cells were selected by treating them for about two months with increasing drug concentrations every two weeks (from 50 nM to 2 μM). A375^DR cells were selected in the presence of both BRAF and MEK inhibitors, as previously done for M14^R, WM266^R, LOX IMVI^R and A375^R. All human melanoma cell lines used in the present work were cultured in RPMI supplemented with 10% (vol/vol) FBS. Human umbilical vein endothelial cells (HUVEC)s, were employed between the third and the seventh passage, were grown in Eagle Basal Medium (EBM) supplemented with 4% FBS, 0.1% gentamicin, 1 μg/mL hydrocortisone, […] and 12 μg/mL bovine brain extract (Cambrex, Bio Science).
# Next, the growth inhibitory effect of simultaneously targeting miRNAs combinations was determined. In detail, for these experiments antagomiRs recognising the UPMIRNAs (amiR-4443: aaaacccacgcctccaa (SEQ ID NO: 10) and amiR-4488: cgccggagcccgccccct (SEQ ID NO: 11)) in different combinations with DOWNMIRNAs mimics (miR-204-5p: […] (SEQ ID NO: 2) and miR-199b-5p […] (SEQ ID NO: 1)) were transiently transfected in melanoma cell lines. […] In addition, the effect of targeting miRNAs individually or in combinations was assessed in a cell line rendered double resistant to both BRAF and MEK inhibitors (called A375^DR). Other investigators have previously reported that double drug resistant melanoma cell lines are more difficult to growth inhibit (5). In fact no growth inhibition was observed effect on A375^DR when the four selected miRNAs were targeted individually (FIG. 18, left panel). […]
# [2] = test system: sensitive M14 and WM266 melanoma cells; assay: Cell viability / proliferation after transient transfection of miRNAs, with or without a BRAFi; format: cell-based, human; conditions: enforced expression by transient transfection, FIG. 12; for effect of BRAFi on cell viability: in the presence of a BRAFi
# Method: (§1) Viability of cells was examined with 3-(4,5-dimethylthiazol-2-yl)-2,5-diphenyltetrazolium bromide Cell Titer 96 AQueous One Solution Cell Proliferation Assay (Promega), according to the manufacturer's protocol. The plates were analyzed in a Multilabel Counter (Bio-Rad Laboratories). Cell viability was also determined by crystal violet staining. Briefly, the cells were stained for 20 min at room temperature with staining solution (0.5% crystal violet in 30% methanol), washed four times with water and then dried. Cells were then dissolved in a Methanol/SDS solution and the adsorbance (595 nm) was read using a microplate ELISA reader.
# (§2) Next, the biological consequences of overexpressing or inhibiting the expression of the four selected miRNAs above miR-4443, miR-4488, miR-204-5p and miR-199b-5p were assessed by transient transfections in sensitive M14 and WM266 melanoma cells in the presence or not of a BRAFi in order to evaluate melanoma cell proliferation and apoptosis induction.
# [3] = test system: sensitive M14 and WM266 melanoma cells; assay: Apoptosis induction measured by Caspase 3/7 activation after transient transfection, with or without a BRAFi; format: cell-based, human; conditions: enforced expression by transient transfection, FIG. 13; for BRAFi induction of apoptosis, measured by Caspase 3/7 activation: in the presence of a BRAFi
# Method: as §2
# [4] = test system: drug sensitive and resistant M14 cells; assay: In vitro short term colony formation assay; format: cell-based, human; conditions: overexpression in BRAFi drug resistant cells (M14^R); FIG. 15
# Method: as §1, with “reader. […]” for “reader.”
# M14^S melanoma cells = assay: Development of BRAFi-resistant colonies under chronic BRAFi exposure; format: cell-based, human; conditions: miRNA overexpressed, cells exposed chronically to a BRAFi (1 μM vemurafenib) for 28 days; FIG. 16
# Method: FIG. 16 M14^S melanoma cells were transfected with the indicated miRNAs for 72 h and then stained with Crystal violet (day 0). The remaining plates were treated with 1 μM vemurafenib every 48 h and then stained after 7, 14, 21 and 28 days. Data are mean±s.d. from three independent experiments. P<0.05. The pictures shown are representative of three independent experiments.
# Hereafter, the effects of the DOWNMIRNAs on the development of drug resistance in vitro were determined. […] In contrast, growth of control cells transfected with scrambled-miRNA was initially impaired by the presence of a BRAF inhibitor (from 7 to 21 days of drug exposure), but gave rise to resistant colonies at later times (day 28) (FIG. 16).
# [5] = test system: VEGFA in WM266^R melanoma cells; assay: Western blot analysis of VEGFA protein levels after miRNA transfection; format: cell-based, human; conditions: miRNA overexpressed in WM266^R cells vs Scrambled miRNA; FIG. 26
# Source text: FIG. 26 WM266^R melanoma cells transfected with Scrambled miRNA or miR-199b-5p were harvested and subjected to Western blot analysis to detect VEGFA and GAPDH protein levels.
# Antibodies against VEGFA and GAPDH were obtained from Santa Cruz Biotechnology. Vemurafenib and trametinib were obtained from Selleck Chemicals. TaqMan probes for GAPDH, VEGF, BCL2, miR-4443, miR-4488, miR-204-5p, miR-199b-5p, miR-630, miR-1234, is-3676 (previously named miR-3676-3p), miR-145-5p and RNU48 were purchased from Applied Biosystems. Melanoma cells were lysed with RIPA buffer; 50 μg of total protein were resolved under reducing conditions by 8% SDS-PAGE and transferred to reinforced nitrocellulose (BA-S 83, Schleider and Schuell, Keene, N.H., USA). The membranes were blocked with 5% non fat dry milk in PBS 0.1% Tween 20, and incubated with the different primary antibodies. The membranes were rehydrated and probed with anti-GAPDH, to estimate the protein equal loading. Densitometric analysis was performed using Quantity One Program (Bio-Rad Laboratories GmbH) and results were expressed as mean values from three independent experiments.
# VEGF increased expression and release members of miR-199 family were considered (25). […] Therefore, miR-199b-5p was overexpressed in WM266^R cells.
Substance,A375^DR colony formation / growth inhibition (A375^DR melanoma cells),effect of BRAFi on cell viability [2],"BRAFi induction of apoptosis, measured by Caspase 3/7 activation [3]",further results
Avastin: used to inhibit VEGFR activity; called VEGFR inhibitor [reference compound],,,,"tube formation induced by CM from WM266^R melanoma cells ([1]; addition of VEGFR inhibitor, FIG. 25): significantly inhibited"
"amiR-4443: antagomiR recognising miR-4443: aaaacccacgcctccaa (antisense AAAACCCACGCCTCCAA; listed as DNA, chemistry not given here)",not able to affect,,,
"amiR-4488: antagomiR recognising miR-4488: cgccggagcccgccccct (antisense CGCCGGAGCCCGCCCCCT; listed as DNA, chemistry not given here)",not able to affect,,,
"miR-199b-5p: miRNA mimic: cccaguguuuagacuaucuguuc (SEQ ID NO:1) (CCCAGUGUUUAGACUAUCUGUUC; listed as RNA, chemistry not given here; listed as Homo sapiens)",not able to affect,potentiates BRAFi activity,potentiates BRAFi activity,"cell proliferation [2]: inhibits cell proliferation; apoptosis (Caspase 3/7 activation) [3]: induces apoptosis; colony formation [4]: strongly impaired colony formation; ability to form BRAFi-resistant colonies (M14^S melanoma cells): completely lost the ability to form BRAFi-resistant colonies; tube formation induced by CM from transfected WM266^R cells ([1]; conditioned medium of WM266^R cells transfected with the miRNA, FIG. 27): lost the capability to induce tube formation; VEGF expression (Western Blot) [5]: able to reduce specifically VEGF expression"
"miR-4443: UPMIRNA, uuggaggcguggguuuu (SEQ ID NO: 10), enforced expression by transient transfection (UUGGAGGCGUGGGUUUU; listed as RNA, chemistry not given here; listed as Homo sapiens)",,decreases the effect of BRAFi,decreases the effect of BRAFi,
"miR-4488: UPMIRNA, agggggcgggcuccggcg (SEQ ID NO: 11), enforced expression by transient transfection (AGGGGGCGGGCUCCGGCG; listed as RNA, chemistry not given here; listed as Homo sapiens)",,decreases the effect of BRAFi,decreases the effect of BRAFi,
